Patent US20040127405A1, “Methods for treating lung infections and lung tumors and for treating and preventing lung metastases” (priority 2000, published 2004)
Like-named read-outs stand apart in the source and are kept apart here. Ends that are not written are not given here. * marks the point of attachment. S‑(2,3-bisacyloxypropyl) = S-(2,3-bisacyloxypropyl) group on the cysteine sulfur (lipopeptide), acyl preferably palmitoyl; X1 = S‑(2,3-bispalmitoyloxy-(2R)-propyl)Cys, CCCCCCCCCCCCCCCC(=O)OC[C@H](CSC[C@H](N)C(=O)*)OC(=O)CCCCCCCCCCCCCCC

Experiments:
[1] = intraperitoneal injection of a few μg; cited from earlier work
lungs of rats = test: Leukocyte counts in bronchoalveolar lavage (BAL) after intratracheal instillation in rats; format: in vivo, rat
Experimental: In the majority of experiments, the biologically active, chemically synthesized 2-R-MALP-2 stereoisomer, corresponding to the natural compound, was used for intracheal administration. […] Both compounds were synthesized and purified as described in Example 1, and kept as 1 mg/ml stock solutions in a 33 vol. % 2-propanol, 67 vol. % water mixture. Stock solutions were diluted with pyrogen-free 0.9 wt. % sodium chloride solutions (Braun, Melsungen, Germany) shortly before application. Solvent controls consisted of corresponding mixtures without MALP-2.
Intratracheal administration of the compounds was performed under short ether anesthesia. During this process, rats were suspended in a hanging position by a rubber band fixed to the rats' upper jaw teeth. After intubation of the trachea via the oral cavity, a total volume of 500 μl was administered. Before administration, the correct position of the tube was checked by blowing air into the lung.
The animals' lungs were lavaged 10 times with 5 ml of cold 0.9 wt. % NaCl solutions via a tracheal cannula. The lavage fluid was pooled, and an average of >90% of the volume was recovered. The bronchoalveolar (BAL) cells were processed for blood leukocytes as described herein.
The total cell numbers in the lung compartments (BAL, marginal pool, and interstitium) and in the blood were determined in a Neubauer counting chamber. Differential cell counts were assessed on cytospins. The slides were fixed in acetone for 10 min and washed with Tris-buffered saline containing 0.1 wt. % Tween 20. Cells were stained with a monoclonal antibody cocktail against lymphocytes (R73 for T cells, O×12 for B cells, and 3.2.3 for natural killer cells [all cells available from Serotec, Oxford, United Kingdom]). At least 400 cells were differentiated on each slide. In addition, neutrophils and macrophages were morphologically identified by May-Grünwald and/or Giemsa staining.
For flow cytometry, cells were transferred into microtiter plates (10^6 cells/well) and washed twice in PBS containing 1% BSA and 0.1% NaN3. The staining was performed with the appropriate primary antibodies described below. After the cells were washed twice, the secondary antibody was incubated for 30 min at 4° C. The cells were analyzed by using a FACScan flow cytometer (Becton Dickinson, Mountain View, Calif.), focusing on the lymphocyte cluster. CD8^+ T cells were identified as R73^+ O×8^+; CD4^+ T cells were identified as R73^+ O×8^−; memory CD4^+ T cells were identified as O×22^− W3/25^high; naive T cells were identified as O×22^+ W3/25^high; and monocytes were identified as O×22^− W3/25^low. Dendritic cells were identified as low-autofluorescence cells, non-T and non-B lymphocytes, and double positive for O×6 and O×62 (Lambrecht et al., 1999. Am. J. Respir. Cell. Mol. Biol. 20:1165-1174). All primary antibodies were monoclonal mouse anti-rat (Serotec). Unconjugated antibodies were detected by using phycoerythrin-conjugated secondary antibody (KPE; Dianova, Hamburg, Germany) and biotinylated primary antibodies with Red 670-streptavidin (Gibco, Gaithersburg, Md.). Isotype-matched antibodies served as a control.
To investigate whether the lipopeptide MALP-2 would be able to exert effects in the lungs, 2.5 μg of the natural stereoisomer 2R-MALP-2 was instilled into the lungs of anesthetized rats. […] Taken together, only the natural 2R stereoisomer of MALP-2 specifically affected the cell counts and distribution of subsets in the BAL.
With respect to FIG. 2, the data are means±the standard error of the mean (SEM; n=six per group).
With respect to FIG. 3, rats were sacrificed at the indicated time points after instillation of 2.5 μg of 2R-MAPL-2, and leukocytes in the bronchoalveolar lavage (BAL) were determined as described. The data are means±the SEM (n=5 per group).
With respect to FIG. 4, data are means±the SEM (n=8 per group). […]

[2] = tested on: lymphatic tissue in the bronchial mucosa; test: Lymphatic tissue in the bronchial mucosa after repeated inhalation in rats; format: in vivo, rat; details: inhalation by mask, 30 μg doses on six occasions at one-week intervals
Experimental: They were maintained under specific-pathogen-free conditions until administration of compounds in accordance with the invention.
With the aid of a mask, rats were made to inhale 30 μg doses of MALP-2 on six occasions at one-week intervals.

MADB106 tumor cells = test: Lung metastasis after intravenous MADB106 tumor cell inoculation in F344 rats; details: intratracheal
[3] = 3 μg instilled into the trachea
[4] = 2.5 μg intratracheal, three days, P<0.01, FIG. 2
[5] = three days after application, FIG. 4

Question: Which results are given for “MALP-2: macrophage-activating lipopeptide MALP-2 (an S-(2,3-bisacyloxypropyl)-cysteine peptide) isolated from Mycoplasma fermentans; stereochemistry not stated where tested (C(S‑(2,3-bisacyloxypropyl))GNNDESNISFKEK; not fully specified; also: acyl groups not given here, alternative: 2,3-diacylglyceryl-serinyl)”?
Answer: leukocyte infiltration [1]: brought about leukocyte infiltration; adverse effect on the animals [3]: not detectable; food consumption, bodyweight, activity and behavior [3]: not noteworthy; food consumption, bodyweight, activity and behavior (inhalation, 30 μg doses on six occasions at one-week intervals): clinically not noteworthy; number of leukocytes in the respiratory tracts and the alveolar space (BAL) (lungs of rats; 3 μg instilled into the trachea, after a few hours, lasts for a few days, FIG. 1): increase in the number of leukocytes; lymphatic tissue in the bronchial mucosa [2]: increase in the lymphatic tissue; effects on lung colonization of tumor cells (MADB106 tumor cells; one day after tumor cell injection, FIG. 5B): no effects; reduction of lung metastasis compared with sham-injected animals (MADB106 tumor cells; simultaneously with tumor cell inoculation, counted 3 wk after inoculation, P=0.0006, FIG. 5A): 44%; effects on lung colonization of tumor cells (MADB106 tumor cells; three days after tumor cell injection, FIG. 5C): no effects

Question: With “S-[2,3-bispalmitoyloxy-(2R)-propyl]cysteinyl-GNNDESNISFKEK (X1-GNNDESNISFKEK) [2R-MALP-2]” as the substance, how does the “time of maximal lymphocyte accumulation in the BAL” value (lungs of rats; 2.5 μg intratracheal) read?
Answer: 72 h

Question: And the “lymphocyte numbers in the BAL” value (lungs of rats; 2.5 μg intratracheal, 24 h (0 h: [0.04±0.01]×10^6), mean±SEM)?
Answer: 0.6±0.1 ×10^6

Question: And the “lymphocyte numbers in the BAL” value (lungs of rats; 2.5 μg intratracheal, 48 h, mean±SEM)?
Answer: 0.9±0.1 ×10^6

Question: And the “lymphocyte numbers in the BAL (maximal accumulation)” value (lungs of rats; 2.5 μg intratracheal, 72 h after instillation, mean±SEM)?
Answer: 1.2±0.1 ×10^6

Question: What about the “all investigated cell types in the BAL” value (lungs of rats; 2.5 μg intratracheal, after 10 days) of the same substance?
Answer: returned to control levels

Question: What about the “increase of total cell number in the BAL” value (lungs of rats; 2.5 μg intratracheal, six hours after treatment, FIG. 3) of the same substance?
Answer: about 10 -fold

Question: What about the “total cell number in the BAL” value (lungs of rats; 2.5 μg intratracheal, three days after application, vs vehicle control, FIG. 2) of the same substance?
Answer: clearly increased

Question: And the “alveolar macrophages (AM) in the BAL” value (lungs of rats; [4])?
Answer: significant increase

Question: What about the “lymphocytes in the BAL” value (lungs of rats; [4]) of the same substance?
Answer: significant increase

Question: What about the “neutrophils in the BAL” value (lungs of rats; [4]) of the same substance?
Answer: significant increase

Question: What about the “time of maximal cell count in the BAL” value (lungs of rats; 2.5 μg intratracheal, FIG. 3) of the same substance?
Answer: 24 h

Question: And the “increase in B cells and monocytes in the BAL” value (lungs of rats; [5])?
Answer: lower, but still significant

Question: What about the “increase in T lymphocytes, NK cells and dendritic cells in the BAL” value (lungs of rats; [5]) of the same substance?
Answer: highest relative increase

Question: And the “increase of leukocyte subpopulations in the BAL (flow cytometry)” value (lungs of rats; three days after application, P<0.01 vs control vehicle, FIG. 4)?
Answer: significant
